The values that follow are results of earlier work, collected in patent US20180271949A1, “THERAPEUTIC TREATMENT FOR NEUROTROPHIC KERATOPATHY” (priority 2017, published 2018).

Data set [1] relates to corneal epithelium wound healing. Conditions: with substance-P; several pre-clinical studies; Nishida 2009.
In another data set the test system is decubitus ulcers. Conditions: topical; Van Ort 1976.
The test system of data set [2] is experimentally-induced superficial skin wounds. Conditions: topical; diabetic and non-diabetic individuals; Greenway 1999.
In another data set the test system is corneal abrasions. Conditions: topical, diabetic rats.
Data set [3] has as its system sub-basal plexus corneal nerves. Particulars: topical; diabetic mice; Chen 2013.
In data set [4] the test system is cultured sheets of corneal epithelial cells. Particulars: Shanley 2004.
Another data set deals with corneal ulcers. Conditions: systemic administration; humans; Aynsley 1945.

Consider “IGF-1: Insulin-like growth factor-1, modulator of corneal wound healing”, for which the “promotion of corneal epithelium wound healing” value in data set [1] is given as “act synergistically with substance-P”.

For “insulin: insulin, topical, systemic or added in vitro, as used in cited literature studies”, the “healing of decubitus ulcers” value in the data set on decubitus ulcers is on record as “improve healing”. Moreover, the “healing of experimentally-induced superficial skin wounds” value in data set [2] is given as “improve healing”. Besides, in the data set with corneal abrasions (Zagon 2007), the corneal sensation result was “improves corneal sensation”. Also, the “wound healing after corneal abrasions” value in the data set with corneal abrasions (Zagon 2007, Klocek 2009) is “improves wound healing”. In addition, in data set [3], the “loss of sub-basal plexus corneal nerves” value was “slow the loss”. In data set [4], the “cell migration and closure of artificial wounds” value is “promoted cell migration and closure of artificial wounds”. In the data set with corneal ulcers, the “healing of corneal ulcers” value is “improved healing”.
